Read-outs that look alike come from different tables or passages of the source.
Experiments:
[1] = molecular target: T1, glutamine PRPP amidotransferase K305Q mutant enzyme (Bacillus subtilis, UniProt P00497, K316Q); assay type: biochemical
T1 construct: Enzymes of the B. subtilis class are synthesized with an NH2 terminal propeptide and an Fe—S center; made in house; host or cells: E. coli strain TX158 (purF) with plasmid pBsF/K305Q
Protocol: (§1) Enzyme activity was assayed by measuring the initial rate of formation of the product glutamate. […] Incubation was at 37° C. for 6 min. […] Reactions were quenched in a boiling water bath for 2 min, and glutamate was determined by the glutamate dehydrogenase method.
(§2) Inhibition by nucleotides was determined by the standard assay to which varied concentrations of nucleotide were added. Synergistic inhibition was determined by varying the concentration of one nucleotide in the presence of a fixed concentration of a second nucleotide. Relative activity (see FIG. 1) refers to the enzyme activity at a given concentration of the varied nucleotide relative to that in the absence of the varied nucleotide. I0.5 values were calculated from plots of relative activity versus varied nucleotide concentration.
(§3) These modified forms of amidotransferase were analyzed to determine the impact of the mutations on end-product inhibition and enzymatic activity. Inhibition by nucleotides was determined as described in Example 1.

[2] = molecular target: T2, glutamine PRPP amidotransferase R307Q mutant enzyme (Bacillus subtilis, UniProt P00497, R318Q); assay type: biochemical
T2 construct: Enzymes of the B. subtilis class are synthesized with an NH2 terminal propeptide and an Fe—S center; made in house; host or cells: E. coli strain TX158 (purF) with plasmid pBsF/R307Q
Protocol: as §1, §2, §3

SMILES: Nc1ncnc2c1ncn2[C@@H]1O[C@H](COP(=O)(O)OP(=O)(O)O)[C@@H](O)[C@H]1O [ADP]
- syn. ([1]; fixed GMP 0.50 mM): 2.6
- syn. ([1]; fixed GMP 5.0 mM): 97.0
- syn. ([2]; fixed GMP 0.50 mM): 12.0
- syn. ([2]; fixed GMP 5.0 mM): 156.0

SMILES: Nc1nc2c(ncn2[C@@H]2O[C@H](COP(=O)(O)O)[C@@H](O)[C@H]2O)c(=O)[nH]1 [GMP]
- syn. ([1]; fixed ADP 0.5 mM): 8.3
- syn. ([1]; fixed ADP 2.5 mM): 38.0
- syn. ([2]; fixed ADP 0.5 mM): 15.0
- syn. ([2]; fixed ADP 2.5 mM): 66.0

From US6586216B2 (Purdue Research Foundation, priority 1997, dated 2003)
